Measured values taken from patent US7919104B2, “Functional epitopes of Streptococcus pneumoniae PsaA antigen and uses thereof” (priority 2005, dated 2011).

How the values were obtained:
[1] = tested on: Detroit 562 cells; experiment: Homologous competitive inhibition of adherence of rPsaA- or peptide-coated fluospheres to Detroit 562 cells; assay type: cell-based, human
Procedure: (§1) Carboxylate-modified fluorospheres (Molecular Probes™, […]) coated with either recombinant PsaA (rPsaA) or PsaA synthetic peptide (P4) were evaluated for their adherence to Detroit 562 NP cells. Four different batches of PsaA beads were generated by varying the concentration of the protein solution used to coat the beads (0.9 mg/ml, 0.53 mg/ml, 5.3 μg/ml and 0.53 μg/ml). P4 and Glycine control beads were generated by using a peptide solution (0.9 mg/ml). Protein concentrations were confirmed by the Bradford test (Sigma). PsaA and peptide beads were compared at similar inocula (1640±210 beads per well) in adherence and adherence competition assays (measured as mean fluorescent units (FU±SE)).
(§2) Homologous competitive inhibitions with 0.5 to 10 μg per well of rPsaA protein or 5 to 20 μg per well of each peptide were performed to determine the specificity of the adherence for rPsaA-coated fluospheres or for each of the three peptide-coated fluospheres. Heterologous competitive inhibitions with each peptide (10 μg per well) were performed to determine which peptide blocked the adherence of whole PsaA-coated fluospheres to the Detroit 562 cells. Absorption of PsaA-specific antibodies was performed by incubation (2 hours at ambient room temperature with rotation, 100 rpm) of 500 μl (1:8 dilution) of the serum 7051 with nitrocellulose strips (2.5×0.5 cm), previously impregnated with rPsaA protein (1.8 mg/ml) and allowed to dry at 37° C. for 1 hour. Strips were replaced every 2 hours for a total of 3 changes. All antibody absorptions were performed in PBS (10 mM, pH 7.2) supplemented with 1% (weight/volume) BSA as a non-specific blocker. Immunoglobulin G (IgG) concentrations (μg/ml) were measured as previously described (Tharpe, Romero-Steiner) after each absorption step to monitor the decline of anti-PsaA antibodies.

[2] = tested on: pneumococci; settings: antibodies to the peptides; cited from earlier work
[3] = tested on: Detroit 562 cells; experiment: Competitive inhibition of adherence of rPsaA-coated fluospheres to Detroit 562 cells; assay type: cell-based, human; settings: for inhibition of rPsaA-fluosphere adherence, heterologous competition: peptide 10 μg/well
Procedure: as §1, §2

[4] = tested on: Detroit 562 cells; experiment: Adherence of rPsaA- or peptide-coated fluospheres (beads) to Detroit 562 cells; assay type: cell-based, human; settings: 3,100±500 fluospheres per well; 2 hour incubation
Procedure: as §1
Recombinant PsaA protein or synthetic peptides were covalently bound to carboxylate-modified FluoSpheres (Molecular Probes, Eugene, Oreg.) (505/515 nm range, yellow, 1 μm in diameter). […] The 2% fluosphere stock was vortexed for 2 minutes at full speed. A 250-μl aliquot was sonicated for 5 minutes to break clumps. The sonicated fluospheres were washed 3 times by centrifugation at 10,000 rpm for 10 minutes in 250 μl MES buffer, pH 6.0 (Molecular Probes). The negative charge in the carboxylate-modified fluospheres was activated by adding 50 μl of EDAC solution (100 mg/ml, Molecular Probes) to the washed fluospheres resuspended in 200 μl MES. The fluospheres were incubated for 30 minutes RT with gentle rotation. A 250-μl volume of rPsaA (1 mg/ml) or peptide (2 mg/ml) resuspended in MES buffer was added to each fluosphere pellet. Suboptimal concentrations of rPsaA (900, 530, 5.3 and 0.53 μg/ml) were also used to generate partially coated fluospheres. Peptides were dissolved as 1 mg in 50 μl of 10% acetic acid followed by addition of 450 μl of MES buffer, pH 6.0. The 500-μl fluosphere suspension was incubated in the dark over night at room temperature with horizontal rotation (150 rpm). The remaining reactive sites were blocked by addition of a 50-μl volume of 1 M solution of glycine, followed by a-30-minute incubation at room temperature with horizontal rotation. The fluosphere suspension was then washed with 500 μl PBS, 50 mM, pH 7.2-7.4 three times by centrifugation at 10,000 rpm for 10 minutes. The first supernatant of the first wash was saved for protein determinations using the microtiter microdilution method of Bradford (Bio-Rad Laboratories, Calif.). The labeled fluosphere pellet was resuspended in 500 μl of PBS, 50 mM, pH 7.2-7.4. Labeled fluospheres were stored in the dark in 100-μl aliquots at 4° C. for up to 4 months. The peptides were stored in powder form at 4° C. under Dryerite desiccant. The resuspended peptides were stored at 4° C. for 6 weeks and for long term storage at −70° C. Fluospheres were counted by limiting dilution using a fluorometer (FLX-600, BioTek) with 485/520 nm excitation/emission wavelength and comparison to a calibration curve previously generated against hemacytometer counts.
Confluent monolayers of Detroit 562 cells grown in 96-well tissue culture plates for 6 days were washed once with 130 μl/well of PBS buffer+0.5% BSA (Sigma cat #A2153, Fraction V purified by alcohol precipitation). The entire outer perimeter of the microtiter plate was not used for adherence assays due to edge effect and lack of confluent growth in these wells. An 80-μl volume per well of PBS buffer+1% BSA and 20 μl per well of diluted fluosphere suspension (to yield ˜3100±500 fluospheres in a 20-μl volume) were added to the washed monolayers. The diluted fluosphere suspension was sonicated for 3 minutes prior to addition to the center of the wells. […] The sides of the plates were then tapped gently to mix. […] Following incubation, plates were washed 5 times with 130 μL/well of PBS+0.5% BSA. The liquid was removed after each wash with a multi-channel aspirator (Costar) and moderate vacuum. The plate was allowed to dry before reading in the fluorometer (485/520 nm). […]

[5] = homologous competitor 5.0 μg/well
[6] = homologous competitor 10 μg/well
[7] = homologous competitor 20 μg/well

Substance | percent reduction in adherence of homologous coated fluospheres [1, 5] [%] | percent reduction in adherence of homologous coated fluospheres [1, 6] [%] | percent reduction in adherence of homologous coated fluospheres [1, 7] [%] | colonization in mice immunized with the peptides [2] | inhibition of rPsaA-fluosphere adherence, heterologous competition [3] [%] | mean adherence of coated fluospheres (mean FU±SE) [4] | enhancement of the binding of rPsaA fluospheres ([3]; unsaturated fluospheres (530 μg/ml of rPsaA), data not shown) [fold]
RSYQHDLRAYGFWRL [P2, synthetic peptide identified by phage display, reference compound] | 43.1 | 20.5 | 0.8 | reduce colonization | 62.2 | 17,195±1,044 FU | –
TVSRVPWTAWAFHGY [P1, synthetic peptide identified by phage display, reference compound] | 50.2 | 60.9 | 34.1 | reduce colonization | 88.1 | 52,684±4,354 FU | –
LVRRFVHRRPHVE-SQ (LVRRFVHRRPHVESQ) [P3, synthetic peptide identified by phage display, reference compound] | −7.3 | 5.2 | 44.2 | reduce colonization | 75.2 | 9,780±228 FU | < 2.5
